Measurements published in the supplement of paper PMC10307832.

Legend:
Assay in all cases: relative viability (nuclei count vs DMSO), 5 days (fraction); higher = more cells survive
GSK-J4 + Tozasertib = compound: CCOC(=O)CCNc1cc(N2CCc3ccccc3CC2)nc(-c2ccccn2)n1 [GSK-J4] + Cc1cc(Nc2cc(N3CCN(C)CC3)nc(Sc3ccc(NC(=O)C4CC4)cc3)n2)n[nH]1 [Tozasertib] (partner 0.1 µM)
Method in brief: (§1)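 Five library-drug doses in √10 steps were combined with a fixed anchor-drug dose, or a single drug was given alone, by pin tool to lung cancer cell lines in 1536-well plates the day after seeding. Nuclei were stained and counted after 5 days. Relative viability is the nuclei count in treated wells over that in vehicle wells, taken as the median of duplicate plates.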

GSK-J4 + Bortezomib = compound: CCOC(=O)CCNc1cc(N2CCc3ccccc3CC2)nc(-c2ccccn2)n1 [GSK-J4] + CC(C)C[C@H](NC(=O)[C@H](Cc1ccccc1)NC(=O)c1cnccn1)B(O)O [Bortezomib] (partner 0.002 µM)
Method in brief: as §1

GSK-J4 + Lapatinib = compound: CCOC(=O)CCNc1cc(N2CCc3ccccc3CC2)nc(-c2ccccn2)n1 [GSK-J4] + CS(=O)(=O)CCNCc1ccc(-c2ccc3ncnc(Nc4ccc(OCc5cccc(F)c5)c(Cl)c4)c3c2)o1 [Lapatinib] (partner 2 µM)
Method in brief: as §1

GSK-J4 + Olaparib = compound: CCOC(=O)CCNc1cc(N2CCc3ccccc3CC2)nc(-c2ccccn2)n1 [GSK-J4] + O=C(c1cc(Cc2n[nH]c(=O)c3ccccc23)ccc1F)N1CCN(C(=O)C2CC2)CC1 [Olaparib] (partner 8 µM)
Method in brief: as §1

Row | Cell Line | relative viability (GSK-J4 + Tozasertib; first compound 0.5 µM) | relative viability (GSK-J4 + Tozasertib; first compound 1.581 µM) | relative viability (GSK-J4 + Tozasertib; first compound 5 µM) | relative viability (GSK-J4 + Tozasertib; first compound 15.81 µM) | relative viability (GSK-J4 + Tozasertib; first compound 50 µM) | relative viability (GSK-J4 + Bortezomib; first compound 0.5 µM) | relative viability (GSK-J4 + Bortezomib; first compound 1.581 µM) | relative viability (GSK-J4 + Bortezomib; first compound 5 µM) | relative viability (GSK-J4 + Bortezomib; first compound 15.81 µM) | relative viability (GSK-J4 + Bortezomib; first compound 50 µM) | relative viability (GSK-J4 + Lapatinib; first compound 0.5 µM) | relative viability (GSK-J4 + Lapatinib; first compound 1.581 µM) | relative viability (GSK-J4 + Lapatinib; first compound 5 µM) | relative viability (GSK-J4 + Lapatinib; first compound 15.81 µM) | relative viability (GSK-J4 + Lapatinib; first compound 50 µM) | relative viability (GSK-J4 + Olaparib; first compound 0.5 µM) | relative viability (GSK-J4 + Olaparib; first compound 1.581 µM) | relative viability (GSK-J4 + Olaparib; first compound 5 µM) | relative viability (GSK-J4 + Olaparib; first compound 15.81 µM) | relative viability (GSK-J4 + Olaparib; first compound 50 µM)
1 | CAL-12T | 0.304 | 0.324 | 0.336 | 0.264 | 0.357 | 1.06 | 0.834 | 0.785 | 1.01 | 0.941 | 0.586 | 0.489 | 0.778 | 0.55 | 0.391 | 0.668 | 0.63 | 0.772 | 0.673 | 0.548
2 | EPLC-272H | 0.385 | 0.174 | 0.443 | 0.146 | 0.172 | 0.864 | – | 1.01 | 0.851 | 0.936 | 0.981 | – | 0.919 | 0.89 | 0.679 | 0.722 | 0.825 | 0.676 | 0.652 | 0.289
3 | NCI-H1299 | – | – | – | – | – | 1.06 | 0.94 | 0.876 | 0.98 | 0.985 | 0.861 | 0.924 | 0.851 | 0.953 | 0.875 | 0.96 | 0.916 | 0.878 | 0.929 | 0.772
4 | ABC-1 | 0.188 | 0.166 | 0.171 | 0.166 | 0.188 | 0.329 | 0.246 | 0.258 | 0.328 | 0.327 | 1.03 | 1.17 | 1.21 | 0.935 | 1.05 | 0.981 | 0.929 | 0.605 | 0.651 | 0.488
5 | NCI-H358 | 0.087 | 0.0898 | 0.0969 | 0.113 | 0.129 | – | – | – | – | – | 0.452 | 0.414 | 0.434 | 0.456 | 0.367 | 0.574 | – | 0.646 | 0.521 | 0.552
6 | NCI-H1437 | 0.391 | 0.372 | 0.384 | 0.377 | 0.293 | 0.537 | 0.328 | 0.435 | 0.504 | 0.209 | 0.851 | 0.693 | 0.713 | 0.727 | 0.17 | 0.587 | 0.596 | 0.601 | 0.609 | 0.301
7 | NCI-H2342 | 0.427 | 0.664 | 0.482 | 0.557 | 0.529 | – | – | – | – | – | – | – | – | – | – | 0.368 | 0.427 | 0.501 | 0.431 | 0.476
8 | EBC-1 | – | – | – | – | – | 0.436 | 0.526 | 0.441 | 0.61 | 0.346 | 0.199 | 0.244 | 0.243 | 0.235 | 0.209 | 0.603 | 0.567 | 0.676 | 0.655 | 0.453
9 | Calu-6 | – | – | – | – | – | 0.884 | 0.912 | 1.08 | 1.13 | 0.898 | 1 | 1.11 | 1.05 | 1.03 | 1.04 | 0.559 | 0.567 | 0.587 | 0.53 | 0.608
10 | LK-2 | 0.165 | – | 0.167 | 0.164 | 0.147 | – | – | – | – | – | 1.04 | 0.905 | 1.12 | 0.646 | 0.885 | 0.675 | 0.628 | 0.98 | 0.592 | 0.364
11 | NCI-H2170 | 0.599 | 0.544 | 0.692 | 0.759 | 0.512 | – | – | – | – | – | 0.311 | 0.247 | 0.265 | 0.261 | 0.22 | 0.533 | 0.538 | 0.652 | 0.536 | 0.391
12 | NCI-H1793 | 0.331 | 0.315 | 0.305 | 0.266 | 0.286 | – | – | – | – | – | 0.71 | 0.557 | 0.621 | 0.404 | 0.234 | 0.751 | 0.634 | 0.482 | 0.201 | 0.145
13 | A549 | – | – | – | – | – | – | – | – | – | – | 0.952 | 1.03 | – | 1.1 | 0.902 | 0.32 | – | 0.29 | 0.31 | 0.392
14 | SK-MES-1 | 0.821 | 0.854 | 0.736 | 0.856 | 0.524 | – | – | – | – | – | 0.452 | 0.495 | 0.459 | 0.392 | 0.421 | 0.675 | 0.641 | 0.727 | 0.626 | 0.22
15 | NCI-H1395 | 0.806 | 0.864 | 0.728 | 0.687 | 0.614 | – | – | – | – | – | 1.22 | 0.955 | 0.759 | 0.883 | 0.648 | 0.435 | 0.48 | 0.399 | 0.45 | 0.406
16 | SW 900 | 0.478 | 0.463 | 0.696 | 0.408 | 0.333 | – | – | – | – | – | – | – | – | – | – | 0.903 | 0.935 | 1.15 | 0.797 | 0.549
17 | LCLC-103H | 0.515 | 0.434 | 0.526 | 0.444 | 0.332 | 1.05 | 0.96 | 1.02 | 0.899 | 1.07 | – | – | – | – | – | 0.8 | 0.685 | 0.776 | 0.654 | 0.646
18 | NCI-H441 | 0.595 | 0.634 | 0.526 | 0.559 | 0.494 | 0.749 | 0.497 | 0.401 | 0.538 | 0.348 | – | – | – | – | – | 0.605 | 0.487 | 0.406 | 0.515 | 0.422
19 | IA-LM | – | – | – | – | – | 0.709 | 0.816 | 0.775 | 0.763 | 0.131 | 0.767 | 0.598 | 0.862 | 0.624 | 0.0952 | 0.872 | 0.9 | 0.874 | 0.706 | 0.169
20 | NCI-H1703 | – | – | – | – | – | 0.377 | 0.377 | 0.234 | 0.355 | 0.436 | 0.937 | 0.912 | 0.84 | 1.11 | 0.695 | 0.385 | 0.576 | 0.372 | 0.362 | 0.422
21 | NCI-H1563 | – | – | – | – | – | 0.809 | 0.952 | 0.776 | 0.66 | 0.808 | 0.821 | 0.621 | 0.784 | 0.834 | 0.892 | – | – | – | – | –
22 | NCI-H1648 | 0.44 | – | 0.978 | 0.324 | 0.307 | – | – | – | – | – | – | – | – | – | – | 0.869 | – | 1.44 | – | 0.793
